Laboratory results reported in ChEMBL document CHEMBL1152026, “Phosphonamidates and phosphonamidate esters as HIV-1 protease inhibitors” (Bioorg Med Chem Lett, 1991).

Tests used:
[1] = target: T1, Human immunodeficiency virus type 1 protease (Human immunodeficiency virus 1, UniProt Q72874); assay: Compound was evaluated for its binding affinity against HIV-1 protease
[2] = The half-life period was determined; assay type: ADME
[3] = target: T1, Human immunodeficiency virus type 1 protease; assay: Compound was evaluated for its inhibitory activity against HIV-1 protease

SMILES | Ki [1] [µM] | half-life [2] [h] | IC50 [3] [µM]
NC(=O)[C@@H]1CCCN1P(=O)(O)C(Cc1ccccc1)NC(=O)C(F)(F)F (stereo not given in full) | 52 | 5 | 121
NC(=O)[C@H](Cc1ccccc1)NP(=O)(O)C(Cc1ccccc1)NC(=O)C(F)(F)F (stereo not given in full) | 45 | 30 | 105
COP(=O)(N[C@@H](Cc1ccccc1)C(N)=O)C(Cc1ccccc1)NC(=O)C(F)(F)F (stereo not given in full) | 80 |  | 184
COP(=O)(C(Cc1ccccc1)NC(=O)C(F)(F)F)N1CCC[C@H]1C(N)=O (stereo not given in full) | 44 |  | 103
